Laboratory results as given in US8936793B2, “Synthetic archaeal glycolipid adjuvants” (National Research Council of Canada, priority 2006, dated 2015).
Blank lines part the entries; values can stand above or below the molecule they belong to.

Legend:
[1] = incorporation of 36 mol % into archaeosomes; Sprott et al (23); cited from earlier work
[2] = test system: SIINFEKL stimulated IFN-γ-secreting cells; test: Elispot assay of antigen-specific CD8+ T cell activity in splenic cells of immunized mice; type: in vivo, C57BL/6 mice; conditions: for antigen-specific CD8+ T cell response, Elispot, FIG. 10A: gentiotriose archaeol/anionic lipid/cholesterol (35/35/30, mol %), weeks 6 and 8; for CD8+ T cell adjuvant activity, Elispot, FIG. 7C: glyco-archaeol/DPPG/cholesterol (25/55/20, mol %)
Procedure: To determine adjuvant activity, various synthetic archaeosomes with OVA entrapped (OVA-archaeosomes) were used to immunize female C57BL/6 mice on days 0 and 21 (6-8 weeks old on first injection). Injections were subcutaneous at the tail base with 0.1 ml PBS containing 15 μg OVA entrapped in 0.2-0.63 mg lipids. Blood samples were collected from the tail vein for anti-OVA IgG/IgM antibody titration done by ELISA (13). In some cases faecal extracts were assayed for IgA (and IgG) to assess mucosal responses following systemic immunizations. Fresh faeces (about 30 mg dry weight) were collected from 4 mice/group, and extracted by adding 0.5 ml of phosphate buffered saline (pH 7.0) containing 10% fetal calf serum and 0.1% sodium azide. Homogenized samples were centrifuged and Elisa measured anti OVA antibody in supernatants. Spleens were collected to determine CTL activity using the Cr^51-assay with specific and non-specific targets EG.7 and EL-4, respectively (14). In Elispot assays antigen-specific CD8^+ T cell activity was measured in splenic cells from immunized mice by determining the number of […] stimulated IFN-γ-secreting cells per 5×10^5 splenic cells (15).

[3] = test system: anti-OVA antibody; test: Anti-OVA IgG/IgM antibody titration in blood of immunized mice by ELISA; type: in vivo, C57BL/6 mice; conditions: for antigen-specific antibody response, FIG. 10B: gentiotriose archaeol/anionic lipid/cholesterol (35/35/30, mol %), 9 weeks
Procedure: (§1) To determine adjuvant activity, various synthetic archaeosomes with OVA entrapped (OVA-archaeosomes) were used to immunize female C57BL/6 mice on days 0 and 21 (6-8 weeks old on first injection). Injections were subcutaneous at the tail base with 0.1 ml PBS containing 15 μg OVA entrapped in 0.2-0.63 mg lipids. Blood samples were collected from the tail vein for anti-OVA IgG/IgM antibody titration done by ELISA (13). In some cases faecal extracts were assayed for IgA (and IgG) to assess mucosal responses following systemic immunizations. Fresh faeces (about 30 mg dry weight) were collected from 4 mice/group, and extracted by adding 0.5 ml of phosphate buffered saline (pH 7.0) containing 10% fetal calf serum and 0.1% sodium azide. Homogenized samples were centrifuged and Elisa measured anti OVA antibody in supernatants. Spleens were collected to determine CTL activity using the Cr^51-assay with specific and non-specific targets EG.7 and EL-4, respectively (14). In Elispot assays antigen-specific CD8^+ T cell activity was measured in splenic cells from immunized mice by determining the number of SIINFEKL stimulated IFN-γ-secreting cells per 5×10^5 splenic cells (15).

[4] = Archaeosome formation upon hydration and stability on storage (microscopic examination, size); type: physicochemical; conditions: lipid hydrated alone
Excerpt: Presence of a relationship was explored between adjuvant activity and the mol % of the active ingredient, β-D-Glc-(1,6)-β-D-Glc-archaeol, mixed with DPPG/cholesterol. Cholesterol was maintained constant at 20 mol % with DPPG added as required to balance increasing amounts of β-D-Glc-(1,6)-β-D-Glc-archaeol. […] Hydration became more difficult at 60 mol % D-Glc-(1,6)-β-D-Glc-archaeol, and archaeosomes with 60 mol % of the synthetic glyco-archaeol increased in size during the removal of unentrapped antigen indicating instability (Table 11). […] Immunized mice developed CD8^+ T cell immune responses that were best at 15-45 mol % Glc2-archaeol content (FIG. 5).
The need for cholesterol, and the optimal mol % cholesterol needed to achieve stability of archaeosomes containing 35 mol % D-Glc-(1,6)-β-D-Glc-archaeol was explored. Cholesterol was varied in each preparation from 0, 10, 20, 30 and 45 mol %. DPPG made up the balance of each preparation. Lipids were mixed in solvent and archaeosomes were loaded with the antigen OVA as described in methods. Archaeosomes formed in all cases upon hydrating at 35° C. However, when stored at refrigeration temperatures (4-6° C.) these synthetic archaeosomes with no cholesterol were unstable, converting to amorphous lipid debris and needle shaped crystals. This instability was avoided by inclusion of 10 mol % or more cholesterol. […] The optimal cholesterol was therefore in the range of >10 to <45 mol %.
Archaeosomes/liposomes were prepared by hydrating 20-30 mg lipids at 40° C. in 2 ml of PBS buffer (10 mM sodium phosphate, 160 mM NaCl, pH 7.1) or water with (Ag-loaded) or without (Ag-free) the test antigen OVA dissolved at 10 mg/ml. In some cases, cholesterol (Sigma), DPPS, DPPE, or DPPG (Avanti Polar Lipids) polar lipids were mixed in chloroform/methanol with the synthetic glyco-archaeols. […] Quantification of antigen loading was done by SDS polyacrylamide gel electrophoresis as described and based on salt corrected dry weights (27). Average diameters were determined by particle size analysis using a 5 mW He/Ne laser (Nicomp 370).

[5] = test system: antigen specific EG.7 targets; test: CTL activity in splenocytes of immunized mice, Cr51-assay; type: in vivo, C57BL/6 mice; conditions: for CTL adjuvant activity, FIG. 7B: disaccharide-archaeol/DPPG/cholesterol (25/55/20, mol %), 12 weeks
Procedure: as §1

[6] = test system: Listeria monocytogenes (LM)-OVA construct; test: Protection against LM-OVA challenge after vaccination, splenic CFU; type: in vivo; conditions: glyco-archaeol/DPPG/chol (25/55/20, mol %), FIG. 13
Procedure: FIG. 13 illustrates protection against LM-OVA challenge after vaccination with OVA-adjuvant combinations. C57BL/6J mice were immunized on day 0 and 21 with 15 ug OVA entrapped in various synthetic archaeosomes composed of the respective synthetic glyco-archaeol/DPPG/chol (25/55/20, mol %). At 8 weeks, mice were challenged with 10^4 intravenous dose of Listeria monocytogenes (LM)-OVA construct. Mice were euthanized 3 days later. Mean±SEM of splenic colony forming units (CFU) is shown for each group.

[7] = test system: B16OVA cells; test: Skin melanoma solid tumor model, protection upon vaccination; type: in vivo, C57BL/6 mice; conditions: 5 mice/group, vaccinated s.c. with 15 μg OVA at 0 and 3 weeks, archaeal lipid/DPPG/cholesterol 25/55/20 mol %
Procedure: A skin melanoma solid tumor model was used in mice to evaluate protection achieved upon vaccination with synthetic archaeosomes. Mice were vaccinated subcutaneously with 15 μg OVA or synthetic archaeosome compositions containing 15 μg OVA at 0 and 3 weeks. Archaeosome lipid compositions were synthetic archaeal lipid/DPPG/cholesterol (25/55/20 mol %). At week 7 post first injection 5×10^6 B16OVA cells were injected subcutaneously in the shaved lower dorsal area. The time was recorded when solid tumours became evident.

Molecule: CC(C)CCCC(C)CCCC(C)CCCC(C)CCOCC(CO[C@@H]1O[C@H](CO[C@@H]2O[C@H](CO)[C@@H](O)[C@H](O)[C@H]2O)[C@@H](O)[C@H](O)[C@H]1O)OCCC(C)CCCC(C)CCCC(C)CCCC(C)C (stereo partly drawn) [DGAs, β-D-Glc-(1,6)-β-D-Glc-archaeol]
adjuvant activity [1]: striking decline in adjuvant activity

Molecule: CCCCCCCCCCCCCCCC(=O)OCC(COP(=O)(O)OCCN)OC(=O)CCCCCCCCCCCCCCC (stereo not drawn) [DPPE, reference compound]
antigen-specific CD8+ T cell response, Elispot, FIG. 10A [2]: relatively low CD8^+ T cell activity
Elispot activity as % of the activity found for DPPG ([2]; gentiotriose-archaeol/anionic lipid/cholesterol (35/35/30, mol %), 6 weeks, data not shown): 27%
antigen-specific antibody response, FIG. 10B [3]: equivalent in antibody response to archaeosomes containing archaetidylglycerol

Molecule: CCCCCCCCCCCCCCCC(=O)OCC(COP(=O)(O)OCC(O)CO)OC(=O)CCCCCCCCCCCCCCC (stereo not drawn) [DPPG, dipalmitoylphosphatidylglycerol, reference compound]
antigen-specific CD8+ T cell response, Elispot, FIG. 10A [2]: transient

archaeosome formation upon hydration [4]: did not form readily
Molecule: CC(C)CCC[C@@H](C)CCC[C@@H](C)CCC[C@@H](C)CCOC[C@H](CO[C@@H]1O[C@H](CO[C@@H]2O[C@H](CO)[C@@H](O)[C@H](O)[C@H]2O)[C@@H](O)[C@H](O)[C@H]1O)OCC[C@H](C)CCC[C@H](C)CCC[C@H](C)CCCC(C)C [Glc2-archaeol]
CTL response, FIG. 4A ([5]; 15 μg OVA s.c. 0 and 3 weeks, 6 weeks from first injection): dramatic increase
mol % Glc2-archaeol content at which CD8+ T cell immune responses were best ([5]; cholesterol 20 mol %, DPPG remainder, FIG. 5): 15-45 mol %
CD8+ T cell adjuvant activity, Elispot, FIG. 7C ([2]; 6 weeks): best
anti-OVA antibody response, FIG. 4B ([3]; 15 μg OVA s.c. 0 and 3 weeks, 6 and 11 weeks): dramatic increase

archaeosome formation upon hydration [4]: did not form readily
Molecule: CC(C)CCC[C@@H](C)CCC[C@@H](C)CCC[C@@H](C)CCOC[C@H](CO[C@H]1O[C@H](CO)[C@@H](O)[C@H](O)[C@@H]1O)OCC[C@H](C)CCC[C@H](C)CCC[C@H](C)CCCC(C)C [Man1-C]

archaeosome formation upon hydration [4]: did not form readily
Molecule: CC(C)CCC[C@@H](C)CCC[C@@H](C)CCC[C@@H](C)CCOC[C@H](CO[C@H]1O[C@H](CO)[C@@H](O)[C@H](O)[C@@H]1O[C@H]1O[C@H](CO)[C@@H](O)[C@H](O)[C@@H]1O)OCC[C@H](C)CCC[C@H](C)CCC[C@H](C)CCCC(C)C [Man2-C]

Molecule: CC(C)CCC[C@@H](C)CCC[C@@H](C)CCC[C@@H](C)CCOC[C@H](CO[C@@H]1O[C@H](CO[C@@H]2O[C@H](CO[C@@H]3O[C@H](CO)[C@@H](O)[C@H](O)[C@H]3O)[C@@H](O)[C@H](O)[C@H]2O)[C@@H](O)[C@H](O)[C@H]1O)OCC[C@H](C)CCC[C@H](C)CCC[C@H](C)CCCC(C)C [gentiotriose-A]
protection from LM-OVA infection [6]: Best protection

Molecule: CC(C)CCC[C@@H](C)CCC[C@@H](C)CCC[C@@H](C)CCOC[C@H](CO[C@@H]1O[C@H](CO[C@H]2O[C@H](CO)[C@@H](O)[C@H](O)[C@H]2O)[C@@H](O)[C@H](O)[C@H]1O)OCC[C@H](C)CCC[C@H](C)CCC[C@H](C)CCCC(C)C [isomaltose-A]
protection from LM-OVA infection [6]: less protective
CD8+ T cell adjuvant activity, Elispot, FIG. 7C ([2]; 6 weeks): lower CD8^+ T cell responses
antibody responses, FIG. 7D ([3]; glyco-archaeol/DPPG/cholesterol (25/55/20, mol %), 6 weeks): quite strong

Molecule: CC(C)CCC[C@@H](C)CCC[C@@H](C)CCC[C@@H](C)CCOC[C@H](CO[C@@H]1O[C@H](CO)[C@@H](O[C@@H]2O[C@H](CO)[C@H](O)[C@H](O)[C@H]2O)[C@H](O)[C@H]1O)OCC[C@H](C)CCC[C@H](C)CCC[C@H](C)CCCC(C)C [lactose-archaeol]
CTL adjuvant activity, FIG. 7B [5]: strong

Molecule: CC(C)CCC[C@@H](C)CCC[C@@H](C)CCC[C@@H](C)CCOC[C@H](CO[C@@H]1O[C@H](CO[C@H]2O[C@H](CO)[C@H](O)[C@H](O)[C@H]2O)[C@@H](O)[C@H](O)[C@H]1O)OCC[C@H](C)CCC[C@H](C)CCC[C@H](C)CCCC(C)C [melibiose-archaeol]
CTL adjuvant activity, FIG. 7B [5]: strong

Molecule: Sulfonoquinovosyl diacylglycerol [SQDG]
antigen-specific CD8+ T cell response, Elispot, FIG. 10A [2]: Best activity

Molecule: archaetidylglycerol [AG]
CTL adjuvant activity, FIG. 3 ([5]; 15 μg OVA s.c. 0 and 3 weeks, spleens 7 weeks after first immunization): little ability to serve as adjuvants
antigen-specific CD8+ T cell response, Elispot, FIG. 10A [2]: Best activity

Molecule: archaetidylglycerophosphate-methyl [AGP-CH3]
antigen-specific CD8+ T cell response, Elispot, FIG. 10A [2]: Best activity

Molecule: archaetidylinositol
antigen-specific antibody response, FIG. 10B [3]: favoured the antibody CD4^+ T cell response over the CD8^+ T cell response

B1: OVA (protein, UniProt P01012 2-386, looked up)
Ovalbumin: GSIGAASMEFCFDVFKELKVHHANENIFYCPIAIMSALAMVYLGAKDSTRTQINKVVRFDKLPGFGDSIEAQCGTSVNVHSSLRDILNQITKPNDVYSFSLASRLYAEERYPILPEYLQCVKELYRGGLEPINFQTAADQARELINSWVESQTNGIIRNVLQPSSVDSQTAMVLVNAIVFKGLWEKAFKDEDTQAMPFRVTEQESKPVQMMYQIGLFRVASMASEKMKILELPFASGTMSMLVLLPDEVSGLEQLESIINFEKLTEWTSSNVMEERKIKVYLPRMKMEEKYNLTSVLMAMGITDVFSSSANLSGISSAESLKISQAVHAAHAEINEAGREVVGSAEAGVDAASVSEEFRADHPFLFCIKHIATNAVLFFGRCVSP
numbers of mice that developed a solid tumor ([7]; 6 days from subcutaneous injection of B16OVA tumor cells): 2
numbers of mice that developed a solid tumor ([7]; 9 days from subcutaneous injection of B16OVA tumor cells): 3
numbers of mice that developed a solid tumor ([7]; 16 days from subcutaneous injection of B16OVA tumor cells): 4
numbers of mice that developed a solid tumor ([7]; 20 days from subcutaneous injection of B16OVA tumor cells): euthanized
